In ChEMBL document CHEMBL1201862, “PubChem BioAssay data set” (2004):
Activity calls are given as the source filed them. The rule behind the calls is not given here.

Target: T1, Short transient receptor potential channel 4 (Mus musculus, UniProt Q9QUQ5)
T1 sequence (Q9QUQ5 whole entry): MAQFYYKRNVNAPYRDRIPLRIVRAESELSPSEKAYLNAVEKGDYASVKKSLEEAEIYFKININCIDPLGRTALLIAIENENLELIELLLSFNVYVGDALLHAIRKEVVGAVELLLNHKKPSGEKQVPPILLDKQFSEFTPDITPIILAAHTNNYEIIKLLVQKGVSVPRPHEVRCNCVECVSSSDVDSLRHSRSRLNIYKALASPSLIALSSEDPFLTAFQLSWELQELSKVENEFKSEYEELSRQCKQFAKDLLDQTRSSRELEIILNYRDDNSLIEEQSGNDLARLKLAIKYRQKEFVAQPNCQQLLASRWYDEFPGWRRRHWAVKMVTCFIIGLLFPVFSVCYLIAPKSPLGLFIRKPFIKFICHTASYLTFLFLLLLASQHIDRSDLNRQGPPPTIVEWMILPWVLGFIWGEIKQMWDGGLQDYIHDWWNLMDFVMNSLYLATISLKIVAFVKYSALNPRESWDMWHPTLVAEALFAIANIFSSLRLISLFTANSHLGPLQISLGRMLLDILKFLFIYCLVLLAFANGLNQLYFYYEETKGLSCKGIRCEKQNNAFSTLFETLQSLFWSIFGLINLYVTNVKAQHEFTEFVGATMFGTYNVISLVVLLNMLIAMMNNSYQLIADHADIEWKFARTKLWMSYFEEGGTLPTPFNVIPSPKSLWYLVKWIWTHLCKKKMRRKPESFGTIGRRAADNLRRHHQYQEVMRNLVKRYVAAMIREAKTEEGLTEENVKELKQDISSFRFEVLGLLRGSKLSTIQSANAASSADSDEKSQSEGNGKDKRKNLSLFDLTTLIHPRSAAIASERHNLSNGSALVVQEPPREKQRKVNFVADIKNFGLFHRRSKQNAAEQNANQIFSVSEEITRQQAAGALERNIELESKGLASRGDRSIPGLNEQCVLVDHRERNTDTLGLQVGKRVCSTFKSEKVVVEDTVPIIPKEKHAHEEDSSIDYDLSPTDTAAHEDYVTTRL
Experiment: calcium entry via TRPC4 opening agents – cell-based, HEK293 TRPC4/mu-opioid, Fluo-4 calcium, dose response (AID 434937)
Assay type: functional

`Cn1c(O)c(/C=N/NC(=O)c2cc3ccccc3cc2O)c2ccccc21` was tested, and the EC50 was 5.96 µM (active).
